{"source": "patent US20030187056A1", "about": "“Live cell procedures to identify to identify compounds modulating intracellular distribution of phosphodiesterase( pde) enzymes” (priority 2000, published 2003)", "key": {"[1]": {"target": "T1, HSPDE4A4-H506N-EGFP (Homo sapiens, UniProt P27815, H506N)", "T1 construct": "expressed in transfected cells", "T1 sequence (P27815 whole entry H506N)": "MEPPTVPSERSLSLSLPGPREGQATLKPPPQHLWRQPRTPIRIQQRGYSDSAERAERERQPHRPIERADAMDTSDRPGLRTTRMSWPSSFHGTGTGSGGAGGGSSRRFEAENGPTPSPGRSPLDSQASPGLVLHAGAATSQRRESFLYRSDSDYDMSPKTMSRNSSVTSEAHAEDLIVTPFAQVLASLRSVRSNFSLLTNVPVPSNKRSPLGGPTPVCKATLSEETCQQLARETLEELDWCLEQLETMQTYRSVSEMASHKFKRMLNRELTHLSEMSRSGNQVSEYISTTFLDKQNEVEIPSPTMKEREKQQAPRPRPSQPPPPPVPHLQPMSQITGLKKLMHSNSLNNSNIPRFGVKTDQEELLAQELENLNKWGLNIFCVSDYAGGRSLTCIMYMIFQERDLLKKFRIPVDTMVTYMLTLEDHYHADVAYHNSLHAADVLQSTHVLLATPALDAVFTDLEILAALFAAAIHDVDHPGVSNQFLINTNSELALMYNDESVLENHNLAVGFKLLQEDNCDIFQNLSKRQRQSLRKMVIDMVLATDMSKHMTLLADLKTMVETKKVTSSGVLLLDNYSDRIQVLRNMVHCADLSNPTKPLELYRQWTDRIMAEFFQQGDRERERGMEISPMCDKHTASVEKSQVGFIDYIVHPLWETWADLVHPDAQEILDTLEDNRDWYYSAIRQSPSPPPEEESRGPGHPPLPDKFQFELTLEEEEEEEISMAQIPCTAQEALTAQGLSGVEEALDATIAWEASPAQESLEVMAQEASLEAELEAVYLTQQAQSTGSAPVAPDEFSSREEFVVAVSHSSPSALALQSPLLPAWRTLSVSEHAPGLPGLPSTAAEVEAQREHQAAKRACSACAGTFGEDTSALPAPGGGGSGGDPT", "assay": "Spot formation in CHO cells transfected with HSPDE4A4-H506N-EGFP", "type": "cell-based", "settings": "clonal cells, over the concentrations tested", "procedure": "(§1) The cells are then fixed with 4% formaldehyde buffer (pH7) for 1 hour, washed with PBS and stained with 1 μM Hoechst 33258 in PBS for 10 minutes at 25° C., then washed twice in PBS. Automated images are collected and analysed for the number of spots per cell as described in Example 2.\nas §1, with “Cells are grown in HAM's F12 medium plus 10% FBS plus various concentrations of inhibitors for 23.5 hours. The” for “The”"}, "[2]": {"target": "T2, HSPDE4A4-EGFP (Homo sapiens, UniProt P27815)", "T2 construct": "expressed in transfected cells", "T2 sequence (P27815 whole entry)": "as the sequence (P27815 whole entry H506N) above, with N506H counted along it", "assay": "Spot formation in CHO cells transfected with HSPDE4A4-EGFP", "type": "cell-based", "procedure": "Chinese hamster ovary cells (CHO), are transfected with the plasmids described in Example 1 above using the transfection agent FuGENE™ 6 (Boehringer Mannheim Corp, USA) according to the method recommended by the suppliers. Stable transfectants are selected using 1 mg/ml G418 sulphate (Calbiochem) in the growth medium (HAM's F12 nutrient mix with Glutamax-1, 10% foetal bovine serum (FBS), 100 μg penicillin-streptomycin mixture ml^−1 (GibcoBRL, supplied by Life Technologies, Denmark). Cell are cultured at 37° C. in 100% humidity and conditions of normal atmospheric gases supplemented with 5% CO2.\nFor fluorescence microscopy, cells are allowed to adhere to Lab-Tek chambered coverglasses (Nalge Nunc International, Naperville USA) for at least 24 hours and are then cultured to about 80% confluence. Cells can also be grown in plastic 96-well plates (Polyfiltronics Packard 96-View Plate or Costar Black Plate, clear bottom; both types tissue culture treated) for imaging purposes. Prior to experiments, the cells are cultured over night without G418 sulphate in HAM F-12 medium with glutamax, 100 μg penicillin-streptomycin mixture ml^−1 and 10% FBS. This medium has low autofluorescence enabling fluorescence microscopy of cells straight from the incubator. For certain tests requiring medium of defined composition, particularly with regard to the presence of specific cell growth factors, the HAM's culture medium is replaced prior to imaging with a buffered saline solution (KRW buffer) containing (in mM) 3.6 KCl, 140 NaCl, 2 NaHCO3, 0.5 NaH2PO4, 0.5 MgSO4, 1.5 CaCl2, 10 Hepes, 5 glucose, pH7.4.\nChanges in cellular distribution of a transfected probe can be imaged and quantified in an automated fashion. For this purpose cells are cultured to near 80% to 90% confluence in coverglass chambers or plastic 96-well plates, given the relevant treatment and allowed to respond. At the end of the response period, cells are fixed in 4% formaldehyde buffer (Lillies fixative buffer, pH7.0: Bie and Berntsen A/S, Denmark) for 30 minutes to 2 hours, then washed in phosphate buffered saline (PBS, Life Technologies, Denmark). Nuclear DNA is stained with 1 μM Hoechst 33258 (Molecular Probes, Eugene, Oreg., USA) in PBS for 10 minutes at 25° C., then washed twice in PBS. Automated images are collected on a Nikon Diaphot 300 (Nikon, Japan) using a Nikon Plan Fluor 20X/0.5NA objective lens. The basic microscope is fitted with a motorised specimen stage and motorised focus control (Prior Scientific, Fulbourn, Cambridge UK), excitation filter wheel (Sutter Instruments, Novato Calif. USA) and Photometrics PXL series camera with a KAF1400 CCD chip (Photometrics, Tucson, Ariz. USA), each of these items being under the control of an Macintosh 7200/90 computer (Apple Computer, Cupertino, Calif. USA). Automation of stage positioning, focus, excitation filter selection, and image acquisition is performed using macros written in-house, running under IPLab Spectrum for Macintosh (Scanalytics, Fairfax, Va. USA). Fluorescence illumination comes from a 100 W HBO lamp. Images are collected in pairs, the first using a 340/10 nm excitation filter, the second with a 475RDF40 excitation filter (Chroma, Brattleboro, Vt.). Both images are collected via the same dichroic and emission filters, which are optimised for EGFP applications (XF100 filter set, Omega Optical, Brattleboro, Vt.). While the choice of filters for imaging the nuclear stain (Hoechst 33258) is not well matched to that dye's spectral properties, resulting in lower image intensity, it greatly improves the throughput of the procedure by allowing both images to be collected using the same dichroic and emission filter. This eliminates any image registration problems and focus shifts which would result from using two different filter sets, which would require more steps in the acquisition procedure and more extensive image processing to overcome."}, "[3]": {"settings": "human, in vivo; cited from earlier work"}, "[4]": {"target": "T3, HSPDE4A1-EGFP (Homo sapiens, UniProt P27815)", "T3 construct": "the ca. 1.95 kb coding region of HSPDE4A1 (GenBank Acc.no. U97584) is amplified; expressed in transfected cells", "T3 sequence (P27815 1-647 isoform P27815-4)": "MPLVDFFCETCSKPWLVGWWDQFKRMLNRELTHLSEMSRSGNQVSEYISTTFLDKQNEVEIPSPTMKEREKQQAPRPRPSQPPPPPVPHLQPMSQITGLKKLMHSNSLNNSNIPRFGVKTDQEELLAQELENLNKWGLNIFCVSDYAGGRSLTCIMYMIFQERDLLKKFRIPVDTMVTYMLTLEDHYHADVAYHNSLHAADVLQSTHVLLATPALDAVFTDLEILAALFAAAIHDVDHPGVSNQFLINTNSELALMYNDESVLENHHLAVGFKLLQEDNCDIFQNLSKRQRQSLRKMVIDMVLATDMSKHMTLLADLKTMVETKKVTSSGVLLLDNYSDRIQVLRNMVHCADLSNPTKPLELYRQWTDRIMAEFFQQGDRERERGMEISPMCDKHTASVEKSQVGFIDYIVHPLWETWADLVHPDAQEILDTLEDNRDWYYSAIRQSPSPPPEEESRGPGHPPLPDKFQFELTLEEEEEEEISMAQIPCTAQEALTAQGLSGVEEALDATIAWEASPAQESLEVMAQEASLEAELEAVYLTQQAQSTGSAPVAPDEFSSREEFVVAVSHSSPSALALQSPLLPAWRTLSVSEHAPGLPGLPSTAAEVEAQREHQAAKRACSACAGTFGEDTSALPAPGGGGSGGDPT", "assay": "Competitive assay: reversal of Rolipram-induced spot dispersal, HSPDE4A1-EGFP CHO cells", "type": "cell-based", "settings": "predicted"}, "[5]": {"target": "T4, HSPDE4A4-ΔLR2-EGFP (Homo sapiens, UniProt P27815, DEL313-320)", "T4 construct": "expressed in transfected cells", "T4 sequence (P27815 with tags, fused parts or gaps DEL313-320)": "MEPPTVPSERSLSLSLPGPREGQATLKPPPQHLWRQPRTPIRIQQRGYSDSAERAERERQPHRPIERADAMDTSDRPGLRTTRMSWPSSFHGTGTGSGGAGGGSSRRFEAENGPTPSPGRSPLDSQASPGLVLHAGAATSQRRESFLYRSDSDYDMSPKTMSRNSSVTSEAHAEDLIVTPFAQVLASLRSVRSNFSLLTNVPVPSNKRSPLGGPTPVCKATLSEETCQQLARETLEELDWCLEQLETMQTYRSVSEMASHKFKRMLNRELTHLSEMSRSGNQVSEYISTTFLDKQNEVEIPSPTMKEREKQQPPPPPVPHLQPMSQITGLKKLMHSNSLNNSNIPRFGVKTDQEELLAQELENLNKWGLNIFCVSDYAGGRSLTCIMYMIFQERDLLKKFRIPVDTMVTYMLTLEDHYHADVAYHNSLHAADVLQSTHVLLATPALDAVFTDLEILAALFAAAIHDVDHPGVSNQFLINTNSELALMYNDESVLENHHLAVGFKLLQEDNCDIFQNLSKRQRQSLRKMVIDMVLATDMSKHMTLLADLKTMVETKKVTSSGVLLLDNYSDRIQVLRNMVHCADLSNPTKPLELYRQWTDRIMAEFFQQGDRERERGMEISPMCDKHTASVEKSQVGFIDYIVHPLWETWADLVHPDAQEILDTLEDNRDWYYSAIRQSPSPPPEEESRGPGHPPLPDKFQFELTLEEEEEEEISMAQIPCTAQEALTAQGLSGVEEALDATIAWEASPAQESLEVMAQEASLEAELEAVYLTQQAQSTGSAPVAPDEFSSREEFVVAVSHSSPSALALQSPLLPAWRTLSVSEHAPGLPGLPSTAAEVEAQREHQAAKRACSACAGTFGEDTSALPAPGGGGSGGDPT", "assay": "Spot formation in CHO cells transfected with HSPDE4A4-ΔLR2-EGFP", "type": "cell-based", "settings": "30 to 0.01 μM", "procedure": "Stably transfected (non-clonal) cells are allowed to adhere to chambered coverglasses in HAM's F12 medium containing 10% FBS.\nas §1"}, "[6]": {"test_system": "PDE4", "settings": "yes/no; cited from earlier work"}, "[7]": {"target": "T2, HSPDE4A4-EGFP", "assay": "Dispersal of preformed Rolipram-induced spots, HSPDE4A4-EGFP CHO cells", "type": "cell-based", "settings": "yes/no", "procedure": "For the microscopic assessment of spot dispersal, stably transfected (non-clonal) cells transfected with the HSPDE4A4-EGFP probe are allowed to adhere to chambered coverglasses in HAM's F12 medium containing 10% FBS. […] Chambered coverglasses are then transferred to a Zeiss 135 inverted microscope for time lapse imaging as described in Example 2, above. At a given point after starting an experiment, a mixture of IBMX and forskolin is added to give final concentrations of 1 mM and 50 μM, respectively. Images are captured at regular intervals to form a time lapse sequence of the response, also as described in Example 2.\nThe plate is then run in the FLIPR system at 37° C., with addition of IBMX and forskolin to all wells at final concentrations of 500 μM and 50 μM respectively after the first minute. The experiment is continued for a further 45 minutes, readings being taken at intervals of 1 minute.\nNon-clonal CHO cells stably transfected with the HSPDE4A4-EGFP probe are allowed to adhere to chambered coverglasses in HAM's F12 medium containing 10% FBS and to grow for 24 hours.\nClonal CHO cells stably transfected with the HSPDE4A4-EGFP probe are allowed to adhere to chambered coverglasses in HAM's F12 medium containing 10% FBS and to grow for 5 days without change of medium, which by this time is serum-depleted.\nIndividual wells are then treated with either 50 μM forskolin plus 500 μM IBMX or 200 nM PMA plus 2 μM ionomycin."}}, "data": [{"compound": "COc1ccc([C@]2(C#N)CC[C@@H](C(=O)O)CC2)cc1OC1CCCC1", "note": "[Ariflo®]", "values": [{"measurement": "spot formation response (in words)", "setting": "[1]", "result": "does not by itself produce spots"}, {"measurement": "formation of spots, compound alone (in words)", "setting": "[2]; observed up to 24 hours", "result": "does not by itself produce spots"}, {"measurement": "Formation of PDE4A4 spots", "setting": "[2]; yes/no", "result": "no"}, {"measurement": "Clinical effect", "setting": "[3]", "result": "anti-"}, {"measurement": "Emesis", "setting": "[3]", "result": "no"}, {"measurement": "Reversal of Rolipram-induced removal of PDE4A1 spots (predicted, not tested)", "setting": "[4]", "result": "yes"}, {"measurement": "formation of spots, compound alone (in words)", "setting": "[5]", "result": "does not by itself produce spots"}, {"measurement": "Inhibition of PDE4 catalytic activity", "setting": "[6]", "result": "yes"}, {"measurement": "Removal of Rolipram-induced PDE4A4-spots", "setting": "[7]", "result": "yes"}]}]}
